Data taken from US5932606A, “Pyrazinone, pyridinone, piperidine and pyrrolidine thrombin inhibitors” (Merck & Co., Inc., priority 1998, dated 1999).
Square brackets hold non-standard residues; d marks the D form. Peptide text beside a SMILES is read from it. * marks the point of attachment. AFC = O=c1cc(C(F)(F)F)c2ccc(N*)cc2o1; pNA = O=[N+]([O-])c1ccc(N*)cc1; Cbz = O=C(OCc1ccccc1)*; Sar = CNCC(=O)O

Assays:
human trypsin = test: In vitro assay for determining proteinase inhibition, trypsin (p-nitroanilide substrate sar-PR-pna, 405 nm); type: biochemical; conditions: 25° C., pH 7.4, 1 mM CaCl2
Procedure: (§1) In Vitro Assay for Determining Proteinase Inhibition
(§2) Assays of human a-thrombin and human trypsin were performed at 25° C. in 0.05 M TRIS buffer pH 7.4, 0.15 M NaCl, 0.1% PEG. Trypsin assays also contained 1 mM CaCl2.
(§3) Activity assays were performed by diluting a stock solution of substrate at least tenfold to a final concentration ≤0.5 Km into a solution containing enzyme or enzyme equilibrated with inhibitor. Times required to achieve equilibration between enzyme and inhibitor were determined in control experiments. Initial velocities of product formation in the absence (Vo) or presence of inhibitor (Vi) were measured. Assuming competitive inhibition, and that unity is negligible compared Km /[S], […] (where [S], [I], and e respectively represent the total concentrations, of substrate, inhibitor and enzyme), the equilibrium constant (Ki) for dissociation of the inhibitor from the enzyme can be obtained from the dependence of Vo /Vi on [I] shown in equation 1.

human a-thrombin = test: In vitro assay for determining proteinase inhibition, thrombin (p-nitroanilide substrate sar-PR-pna, 405 nm); type: biochemical; conditions: 25° C., pH 7.4
Procedure: as §1, §2, §3

thrombin = test: More sensitive thrombin activity assay with fluorogenic substrate Z-GPR-afc (fluorescence at 500 nm); type: biochemical, human; conditions: excitation at 400 nm
Procedure: as §2
In certain studies with potent inhibitors (Ki <10 nM) where the degree of inhibition of thrombin was high, a more sensitive activity assay was employed. […] Concentrations of stock solutions of Z-GPR-afc were determined from measurements of absorbance at 380 nm of the 7-amino-4-trifluoromethyl coumarin produced upon complete hydrolysis of an aliquot of the stock solution by thrombin.
as §3

Structure (SMILES)	Km (human trypsin)	Km (human a-thrombin)	Km (thrombin)
CNCC(=O)N1CCC[C@H]1C(=O)N[C@@H](CCCNC(=N)N)C(=O)Nc1ccc([N+](=O)[O-])cc1 [sar-PR-pna, sarcosine-Pro-Arg-p-nitroanilide] (H-[Sar]-Pro-Arg-pNA)	59 µM	125 µM	
N=C(N)NCCC[C@H](NC(=O)[C@@H]1CCCN1C(=O)CNC(=O)OCc1ccccc1)C(=O)Nc1ccc2c(C(F)(F)F)cc(=O)oc2c1 [Z-GPR-afc, Cbz-Gly-Pro-Arg-7-amino-4-trifluoromethylcoumarin] (Cbz-Gly-Pro-Arg-{AFC})			27 µM
